From patent US9073941B2, “Compounds and methods for treating tuberculosis infection” (Academia Sinica, priority 2010, dated 2015)
Converted amounts (≈) assume the structure as drawn. Read-outs that look alike come from different tables or passages of the source.

How the values were obtained:
[1] = molecular target: lipoamide dehydrogenase (Lpd) (Mycobacterium tuberculosis (strain ATCC 25618 / H37Rv), UniProt P9WHH9); assay: Lipoamide Dehydrogenase (Lpd) Inhibition Assay; assay type: biochemical
[2] = molecular target: Mtb PDH (Lpd+DlaT+AceE) (Mycobacterium tuberculosis (strain ATCC 25618 / H37Rv), UniProt P9WHH9); assay: PDH Inhibition Activity; assay type: biochemical
[3] = tested on: Mycobacterium tuberculosis strains H37Rv; assay: In Vitro Antitubercular H37Rv MIC Assay (resazurin); assay type: cell-based; conditions: 168 h
[4] = growth of Mycobacterium tuberculosis H37Rv, 7H9 medium, 7 days, tested 8-0.25 μg/mL
[5] = concentration required for 50% inhibition of LPD activity, DTNB detection, OD405 nm
[6] = concentration required for 50% inhibition of PDH activity, fluorescence ex 360 nm / em 460 nm, read-out: PDH IC50
[7] = Mycobacterium tuberculosis, H37RV

Structure (SMILES)	IC50 [1] [µM]	IC50 [2] [µM]	MIC [3, 4] [mg/L]	IC50 [1, 5] [µM]	IC50 [2, 6] [µM]	MIC [3, 7] [mg/L]
Cn1nc(-c2ccc(Cl)cc2)nc2c(=O)n(C)c(=O)nc1-2 [Compound 603]	0.1 ± 0.01	< 0.04	> 8	–	–	–
CCn1nc(-c2ccccc2C)nc2c(=O)n(C)c(=O)nc1-2 [Compound 613]	–	–	–	< 0.04	< 0.04	–
Cc1ccc(CNC(=O)C2CCN(S(=O)(=O)c3cn(C(C)C)cn3)CC2)cc1 [Compound 501]	–	–	> 8	3.05 ± 1.05	3.13	–
CCOC(=O)/C=C\CBr [(XVI)]	–	–	≤ 0.25	2.92 ± 0.88	1.65	–
Nc1c(O)ccc2nsnc12 [Compound 203]	–	–	> 8	–	3.67	–
CCCCn1c(NS(=O)(=O)c2ccc(C)cc2)c(C#N)c2nc3ccccc3nc21 [Compound 1005]	–	–	–	0.9 ± 0.13	> 5	–
CC1(C)C(=O)N=C2c3ccccc3C(=O)C(=O)C21 (stereo not shown) [Compound 903]	–	–	> 8	0.86 ± 0.08	1.17	–
COc1ccc(CCI)cc1 [Compound 303]	–	–	2 (≈ 7.63 µM)	–	< 0.04	–
Cc1ccc(-c2nc3c(=O)n(C)c(=O)nc-3n(C)n2)cc1 [Compound 618]	< 0.04	< 0.04	–	–	–	–
c1ccc2c(c1)ccn1c3ccccc3cc21 [Compound 401]	–	–	> 8	–	0.14	–
N#Cc1c(NC(=O)c2ccc(Cl)c([N+](=O)[O-])c2)n(Cc2ccccc2)c2nc3ccccc3nc12 [Compound 1010]	> 4	> 5	–	–	–	–
CCCCn1c(NC(=O)c2ccc(Br)o2)c(C#N)c2nc3ccccc3nc21 [Compound 1001]	–	–	> 8	1.08 ± 0.24	0.954	–
O=C1c2ccccc2C(O)(O)[C@@]1(O)[C@]1(O)C(=O)c2ccccc2C1(O)O [Compound 101]	–	–	–	–	1.93	> 8
CCCCCn1c(NC(=O)c2ccc(Br)o2)c(C#N)c2nc3ccccc3nc21 [Compound 1007]	1.36 ± 0.16	> 5	–	–	–	–
Cn1c(N)c(C(=O)NCc2ccccc2)c2nc3ccccc3nc21 [Compound 1013]	–	–	–	> 4	> 5	–
Cn1nc(-c2ccc(Cl)c(Cl)c2)nc2c(=O)n(C)c(=O)nc1-2 [Compound 604]	0.14 ± 0.01	< 0.04	> 8	–	–	–
CCn1nc(/C=C/c2ccccc2)nc2c(=O)n(C)c(=O)nc1-2 [Compound 609]	–	–	–	< 0.04	< 0.04	> 8
O=C1C(=O)c2nn(-c3ccccc3)nc2-c2ccccc21 [Compound 905]	< 0.04	< 0.04	8 (≈ 29.1 µM)	–	–	–
Nc1ccc2c(c1)C(=O)C(=O)c1ccccc1-2 [Compound 902]	–	–	> 8	0.67 ± 0.07	0.788	–
Cn1nc(-c2ccc(C(F)(F)F)cc2)nc2c(=O)n(C)c(=O)nc1-2 [Compound 619]	–	–	–	< 0.04	< 0.04	–
COc1ccc(NC(=O)CN(C)S(=O)(=O)c2cc(Br)cnc2N)cc1 [Compound 500]	–	–	> 8	–	–	–
C=CCOCc1ccccc1 [Compound 301]	–	–	8 (≈ 54 µM)	–	0.76	–
CCn1nc(-c2cccs2)nc2c(=O)n(C)c(=O)nc1-2 [Compound 610]	–	–	–	< 0.04	< 0.04	> 8
O=C1C(=O)c2cc([N+](=O)[O-])ccc2-c2ccccc21 [Compound 904]	–	–	> 8	0.64 ± 0.05	0.691	–
C=CCn1c(NS(=O)(=O)c2ccccc2)c(C#N)c2nc3ccccc3nc21 [Compound 1002]	–	–	> 8	0.98 ± 0.15	3.31	–
CCC(C)n1c(NC(=O)c2ccccc2)c(C#N)c2nc3ccccc3nc21 (stereo not shown) [Compound 1004]	–	–	–	0.87 ± 0.1	> 5	–

Structure (SMILES)	IC50 [1] [µM]	IC50 [2] [µM]	MIC [3, 4] [mg/L]	IC50 [1, 5] [µM]	IC50 [2, 6] [µM]	MIC [3, 7] [mg/L]
COCCCn1c(N)c(C(=O)NCCC(C)C)c2nc3ccccc3nc21 [Compound 1012]	–	–	–	> 4	> 5	–
CCn1nc(-c2cccnc2)nc2c(=O)n(C)c(=O)nc1-2 [Compound 608]	0.19 ± 0.03	< 0.04	–	–	–	> 8
CCn1nc(-c2ccccc2)nc2c(=O)n(C)c(=O)nc1-2 [Compound 602]	0.23 ± 0.02	< 0.04	–	–	–	> 8
CCC(C)n1c(NC(=O)c2ccc(Br)o2)c(C#N)c2nc3ccccc3nc21 (stereo not shown) [Compound 1009]	–	–	–	1.65 ± 0.23	> 5	–
O=C1c2ccccc2-c2nc3nonc3nc21 [Compound 103]	–	–	≤ 0.25	–	< 0.04	–
COc1ccc(-c2nc3c(=O)n(C)c(=O)nc-3n(C)n2)cc1OC [Compound 606]	–	–	> 8	0.96 ± 0.07	1.44	–
COCCn1c(NC(=O)c2cccc([N+](=O)[O-])c2)c(C#N)c2nc3ccccc3nc21 [Compound 1008]	–	–	–	1.05 ± 0.14	> 5	–
Cn1nc(-c2ccc(F)cc2)nc2c(=O)n(C)c(=O)nc1-2 [Compound 616]	< 0.04	< 0.04	–	–	–	–
CCn1nc(-c2ccc(OC)cc2)nc2c(=O)n(C)c(=O)nc1-2 [Compound 607]	–	–	8 (≈ 25.5 µM)	0.06 ± 0.01	< 0.04	–
CCCc1nc2c(=O)n(C)c(=O)nc-2n(C)n1 [Compound 617]	–	–	–	< 0.04	< 0.04	–
Cc1nc2c(=O)n(C)c(=O)nc-2n(C)n1 [Compound 611]	–	–	–	0.08 ± 0.01	< 0.04	4 (≈ 19.3 µM)
CCCCn1c(NC(=O)c2cccs2)c(C#N)c2nc3ccccc3nc21 [Compound 1006]	–	–	–	0.86 ± 0.16	> 5	–
O=C(OC[C@H]1O[C@H](OC(=O)c2cc(O)c(O)c(OC(=O)c3cc(O)c(O)c(O)c3)c2)[C@H](OC(=O)c2cc(O)c(O)c(OC(=O)c3cc(O)c(O)c(O)c3)c2)[C@@H](OC(=O)c2cc(O)c(O)c(OC(=O)c3cc(O)c(O)c(O)c3)c2)[C@@H]1OC(=O)c1cc(O)c(O)c(OC(=O)c2cc(O)c(O)c(O)c2)c1)c1cc(O)c(O)c(OC(=O)c2cc(O)c(O)c(O)c2)c1 [Compound 302]	–	–	> 8	–	0.45	–
CCOC(=O)c1c(NS(=O)(=O)c2ccccc2)n(CCCOC)c2nc3ccccc3nc12 [Compound 1011]	–	–	–	1.31 ± 0.16	> 5	–
CCCCn1c(NC(=O)c2ccccc2)c(C#N)c2nc3ccccc3nc21 [Compound 1003]	–	–	–	0.52 ± 0.07	> 5	–
CN1N=C(c2ccccc2)Nc2c1nc(O)n(C)c2=O [Compound 701]	–	–	–	–	< 0.04	> 8
CC(=O)C(C(C)=O)C1=CC(=O)C(=O)c2ccccc21 [Compound 906]	–	–	–	2.15 ± 0.43	> 5	–
CCn1nc(-c2ccc([N+](=O)[O-])cc2)nc2c(=O)n(C)c(=O)nc1-2 [Compound 620]	–	–	–	< 0.04	< 0.04	–
Cn1nc(-c2ccc([N+](=O)[O-])cc2)nc2c(=O)n(C)c(=O)nc1-2 [Compound 614]	–	–	–	< 0.04	< 0.04	–
CCn1nc(-c2ccccc2Cl)nc2c(=O)n(C)c(=O)nc1-2 [Compound 615]	–	–	–	< 0.04	< 0.04	–
CCn1nc(-c2ccc(C(=O)OC)cc2)nc2c(=O)n(C)c(=O)nc1-2 [Compound 621]	–	–	–	< 0.04	< 0.04	–
COc1ccc(-c2nc3c(=O)n(C)c(=O)nc-3n(C)n2)cc1 [Compound 605]	–	–	8 (≈ 26.7 µM)	0.07 ± 0.01	< 0.04	–
O=C1C=C(NCc2ccccc2)c2ccccc2C1=O [Compound 901]	–	–	8 (≈ 30.4 µM)	0.1	4.28	–
Cn1nc(-c2ccccc2)nc2c(=O)n(C)c(=O)nc1-2 [Compound 601]	–	–	–	< 0.04	< 0.04	> 8
CCOc1ccccc1/C=C1\Cc2ccccc2C1=O [Compound 102]	–	–	> 8	–	1.13	–
